Results from the supplement of paper PMC6045584.
± gives the standard deviation of the averaged measurements.

Key:
[1] = compound: CN1CC[C@H](c2c(O)cc(O)c3c(=O)cc(-c4ccccc4Cl)oc23)[C@H](O)C1 [FLAVOPIRIDOL]; experiment: surviving fraction relative to DMSO-only wells; higher = less growth inhibition; conditions: exposure time: 5 days
How it was run: (§1)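 Surviving fraction is CellTiter-Glo luminescence divided by the median of wells given DMSO only. For this, log-phase tumour cell lines went into 384-well plates at 250–500 cells per well and, 24 hours later, into five days of continuous inhibitor exposure at 0.5, 1, 5, 10, 50, 100, 500 and 1000 nM. Lines were screened three times and retained only if replicate Pearson r >0.7 and median Z' >0.3.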

[2] = compound: COc1ccc(C2=N[C@@H](c3ccc(Cl)cc3)[C@@H](c3ccc(Cl)cc3)N2C(=O)N2CCNC(=O)C2)c(OC(C)C)c1 [NUTLIN3]; experiment: as above; conditions: exposure time: 5 days
How it was run: as §1

Row | Test System | surviving fraction ([1]; 0.5 nM) | surviving fraction ([1]; 1 nM) | surviving fraction ([1]; 5 nM) | surviving fraction ([1]; 10 nM) | surviving fraction ([1]; 50 nM) | surviving fraction ([1]; 100 nM) | surviving fraction ([1]; 500 nM) | surviving fraction ([1]; 1000 nM) | surviving fraction ([2]; 0.5 nM) | surviving fraction ([2]; 1 nM) | surviving fraction ([2]; 5 nM) | surviving fraction ([2]; 10 nM) | surviving fraction ([2]; 50 nM) | surviving fraction ([2]; 100 nM) | surviving fraction ([2]; 500 nM) | surviving fraction ([2]; 1000 nM)
1 | 22RV1 PROSTATE | 1.04 ± 0.12 | 0.928 ± 0.16 | 0.953 ± 0.11 | 0.893 ± 0.2 | 0.897 ± 0.11 | 0.405 ± 0.14 | 0.124 ± 0.11 | 0.118 ± 0.086 | 1.01 ± 0.046 | 1.04 ± 0.013 | 0.96 ± 0.068 | 0.99367 ± 0.00058 | 0.981 ± 0.079 | 1.01 ± 0.074 | 0.95 ± 0.062 | 0.777 ± 0.047
2 | 93VU HEADNECK | 1.04 ± 0.088 | 1.03 ± 0.012 | 1.19 ± 0.066 | 1.12 ± 0.11 | 0.82 ± 0.011 | 0.0713 ± 0.0035 | 0.0237 ± 0.0015 | 0.0217 ± 0.0015 | 1 ± 0.12 | 0.982 ± 0.14 | 1.09 ± 0.1 | 1.1 ± 0.076 | 1.12 ± 0.12 | 1.21 ± 0.013 | 1.05 ± 0.12 | 1.02 ± 0.025
3 | 143B BONE | 1.12 ± 0.14 | 1.11 ± 0.086 | 1.11 ± 0.048 | 1.11 ± 0.095 | 0.824 ± 0.024 | 0.279 ± 0.0035 | 0.045 ± 0.0028 | 0.042 ± 0.0028 | 1.04 ± 0.019 | 1.02 ± 0.022 | 1.03 ± 0.029 | 1.024 ± 0.0085 | 1.06 ± 0.039 | 1.029 ± 0.0099 | 1.05 ± 0.017 | 1.01 ± 0.073
4 | A549 LUNG | 1.04 ± 0.011 | 1.05 ± 0.015 | 1.06 ± 0.013 | 1.05 ± 0.018 | 1.18 ± 0.028 | 0.379 ± 0.11 | 0.0697 ± 0.0058 | 0.0687 ± 0.0038 | 0.984 ± 0.03 | 0.996 ± 0.031 | 0.963 ± 0.026 | 0.953 ± 0.016 | 1.01 ± 0.084 | 1.02 ± 0.019 | 1.04 ± 0.053 | 1.08 ± 0.061
5 | ASKA SYNOVIAL | 1.02 ± 0.087 | 1.02 ± 0.066 | 1.11 ± 0.054 | 1.11 ± 0.036 | 0.507 ± 0.065 | 0.202 ± 0.01 | 0.186 ± 0.012 | 0.261 ± 0.0078 | 1.04 ± 0.04 | 1.13 ± 0.039 | 1.2 ± 0.055 | 1.03 ± 0.015 | 1.02 ± 0.064 | 1.05 ± 0.041 | 0.748 ± 0.035 | 0.512 ± 0.014
6 | BT20 BREAST | 1.21 ± 0.073 | 1.16 ± 0.022 | 1.17 ± 0.1 | 1.013 ± 0.0035 | 0.742 ± 0.12 | 0.359 ± 0.012 | 0.038 ± 0.0062 | 0.0367 ± 0.004 | 1.1 ± 0.18 | 1.11 ± 0.14 | 1.09 ± 0.07 | 1.01 ± 0.14 | 1.05 ± 0.24 | 1.07 ± 0.23 | 1.15 ± 0.25 | 1.12 ± 0.18
7 | BT549 BREAST | 1.17 ± 0.052 | 1.13 ± 0.094 | 1.11 ± 0.07 | 0.994 ± 0.021 | 0.454 ± 0.035 | 0.074 ± 0.012 | 0.0343 ± 0.005 | 0.035 ± 0.007 | 1.16 ± 0.13 | 1.07 ± 0.11 | 1.07 ± 0.063 | 1.12 ± 0.11 | 1.18 ± 0.1 | 1.07 ± 0.067 | 1.17 ± 0.13 | 1.08 ± 0.25
8 | C33A CERVIX | 0.991 ± 0.084 | 1.1 ± 0.041 | 1.12 ± 0.067 | 1.31 ± 0.13 | 0.923 ± 0.13 | 0.366 ± 0.011 | 0.028 ± 0.0027 | 0.0277 ± 0.0072 | 0.888 ± 0.04 | 0.928 ± 0.034 | 0.919 ± 0.084 | 0.905 ± 0.039 | 0.978 ± 0.094 | 1.04 ± 0.055 | 0.959 ± 0.068 | 1.03 ± 0.094
9 | CADOES1 SOFT TISSUE | 0.844 ± 0.099 | 0.924 ± 0.062 | 0.843 ± 0.13 | 0.888 ± 0.082 | 0.332 ± 0.062 | 0.146 ± 0.054 | 0.0357 ± 0.0051 | 0.038 | 0.96 ± 0.077 | 0.925 ± 0.056 | 0.982 ± 0.036 | 0.801 ± 0.17 | 0.841 ± 0.077 | 0.874 ± 0.037 | 0.741 ± 0.014 | 0.517 ± 0.017
10 | CAL51 BREAST | 1.02 ± 0.065 | 0.983 ± 0.092 | 1.02 ± 0.056 | 0.877 ± 0.092 | 0.528 ± 0.0091 | 0.0968 ± 0.014 | 0.0297 ± 0.00058 | 0.03133 ± 0.00029 | 0.944 ± 0.012 | 0.928 ± 0.059 | 0.999 ± 0.053 | 0.979 ± 0.018 | 1.05 ± 0.054 | 1.01 ± 0.038 | 0.816 ± 0.1 | 0.707 ± 0.09
11 | CAL72 BONE | 1.09 ± 0.1 | 1.06 ± 0.021 | 1.05 ± 0.049 | 0.982 ± 0.04 | 0.649 ± 0.053 | 0.142 ± 0.053 | 0.0577 ± 0.0032 | 0.0577 ± 0.0076 | 1.09 ± 0.029 | 1.07 ± 0.033 | 1.1 ± 0.037 | 1.08 ± 0.055 | 1.08 ± 0.027 | 1.13 ± 0.043 | 1.1 ± 0.084 | 1.11 ± 0.024
12 | CAL120 BREAST | 0.971 ± 0.055 | 0.972 ± 0.029 | 0.955 ± 0.058 | 0.949 ± 0.03 | 0.73 ± 0.034 | 0.314 ± 0.051 | 0.0425 ± 0.003 | 0.0403 ± 0.0016 | 0.921 ± 0.03 | 0.919 ± 0.051 | 0.933 ± 0.039 | 0.924 ± 0.02 | 0.9877 ± 0.005 | 0.9757 ± 0.0032 | 0.981 ± 0.012 | 0.977 ± 0.029
13 | CASKI CERVIX | 0.918 ± 0.045 | 0.969 ± 0.031 | 0.919 ± 0.055 | 0.888 ± 0.056 | 0.284 ± 0.028 | 0.0293 ± 0.0015 | 0.022 ± 0.001 | 0.0253 ± 0.00058 | 0.945 ± 0.0061 | 0.899 ± 0.053 | 0.9873 ± 0.0035 | 0.979 ± 0.027 | 1.04 ± 0.074 | 1.05 ± 0.026 | 0.972 ± 0.042 | 0.988 ± 0.05
14 | CHLA90 AUTONOMIC GANGLIA | 0.987 ± 0.1 | 1 ± 0.12 | 0.906 ± 0.083 | 0.878 ± 0.021 | 0.826 ± 0.11 | 0.573 ± 0.072 | 0.0277 ± 0.0015 | 0.0247 ± 0.00058 | 1.02 ± 0.018 | 1.05 ± 0.043 | 1 ± 0.039 | 0.923 ± 0.025 | 0.987 ± 0.049 | 1.01 ± 0.019 | 1.06 ± 0.022 | 1.02 ± 0.066
15 | CME SYNOVIAL | 1.13 ± 0.18 | 1.22 ± 0.07 | 1.23 ± 0.081 | 1.2 ± 0.07 | 0.864 ± 0.053 | 0.25 ± 0.0067 | 0.168 ± 0.004 | 0.228 ± 0.012 | 1.18 ± 0.1 | 1.29 ± 0.17 | 1.32 ± 0.16 | 1.24 ± 0.13 | 1.36 ± 0.16 | 1.44 ± 0.19 | 1.4 ± 0.073 | 1.22 ± 0.09
16 | COLO320DM LARGE INTESTINE | 1.1 ± 0.11 | 1.09 ± 0.086 | 1.08 ± 0.14 | 1.01 ± 0.12 | 0.503 ± 0.0073 | 0.0807 ± 0.0055 | 0.0493 ± 0.00076 | 0.0478 ± 0.0036 | 1.11 ± 0.093 | 1.07 ± 0.019 | 1.08 ± 0.079 | 1.1 ± 0.16 | 1.15 ± 0.16 | 1.21 ± 0.069 | 1.12 ± 0.065 | 1.19 ± 0.17
17 | DU4475 BREAST | 1.05 ± 0.1 | 1.08 ± 0.12 | 0.83 ± 0.07 | 0.914 ± 0.16 | 0.162 ± 0.021 | 0.0273 ± 0.0021 | 0.025 ± 0.0027 | 0.0267 ± 0.0021 | 0.825 ± 0.3 | 0.909 ± 0.2 | 1 ± 0.52 | 1.13 ± 0.49 | 0.965 ± 0.39 | 1.12 ± 0.51 | 0.832 ± 0.42 | 0.673 ± 0.47
